Assay [1] concerns the target T1, BA/F3-FLT3-ITD + D835Y (Homo sapiens, UniProt P36888, D835Y, cells depend on it, form not given).
T1 sequence (P36888 with tags, fused parts or gaps INS600HVDFREYEYD/D835Y): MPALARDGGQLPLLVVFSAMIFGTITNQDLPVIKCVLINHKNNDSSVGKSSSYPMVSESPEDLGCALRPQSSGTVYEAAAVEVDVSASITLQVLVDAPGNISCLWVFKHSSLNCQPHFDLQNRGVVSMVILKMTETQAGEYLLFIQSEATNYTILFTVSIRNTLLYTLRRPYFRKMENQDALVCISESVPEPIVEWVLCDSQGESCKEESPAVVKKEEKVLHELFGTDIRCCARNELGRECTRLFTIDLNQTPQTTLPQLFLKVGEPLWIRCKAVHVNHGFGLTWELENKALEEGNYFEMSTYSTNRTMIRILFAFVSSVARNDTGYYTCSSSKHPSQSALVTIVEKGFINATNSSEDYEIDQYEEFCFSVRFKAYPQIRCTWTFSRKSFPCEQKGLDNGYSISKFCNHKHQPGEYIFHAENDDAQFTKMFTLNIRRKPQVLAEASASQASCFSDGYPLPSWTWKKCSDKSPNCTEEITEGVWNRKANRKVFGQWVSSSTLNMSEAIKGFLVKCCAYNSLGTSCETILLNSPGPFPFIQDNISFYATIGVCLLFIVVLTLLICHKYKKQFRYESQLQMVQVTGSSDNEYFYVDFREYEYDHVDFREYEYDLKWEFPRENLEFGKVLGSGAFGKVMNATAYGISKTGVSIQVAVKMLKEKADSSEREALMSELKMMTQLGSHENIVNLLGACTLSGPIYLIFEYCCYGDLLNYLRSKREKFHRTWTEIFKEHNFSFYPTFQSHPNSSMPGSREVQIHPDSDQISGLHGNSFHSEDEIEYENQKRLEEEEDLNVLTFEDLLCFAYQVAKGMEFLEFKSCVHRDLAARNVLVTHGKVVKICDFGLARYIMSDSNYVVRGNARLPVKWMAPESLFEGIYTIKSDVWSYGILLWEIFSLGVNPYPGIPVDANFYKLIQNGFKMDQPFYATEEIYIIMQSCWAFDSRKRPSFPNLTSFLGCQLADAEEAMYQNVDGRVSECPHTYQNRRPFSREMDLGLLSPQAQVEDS
Kind of assay: Engineered BA/F3 cell growth assay, FLT3 ITD/D835Y. The settings on record: 3 d growth. Type of assay: cell-based, murine. The essentials:
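IC50 derived from CellTiter-Glo ATP luminescence after 3 days at 37 °C, 5% CO2, over eight 1:3 dilutions from 1 μM (0.2% DMSO final). Cells: IL-3-independent murine Ba/F3 expressing full-length FLT3 ITD/D835Y, 1×10^4 per well.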

Assay [2] has as its system MOLM-14 F691L (endogenous FLT3 ITD and transfected FLT3 F691L). Kind of assay: MOLM-14 F691L cell proliferation assay (CellTiter-Glo). The settings on record: Homo sapiens, MOLM-14, 72 h; 3 d growth, GMean. The class given is cell-based. The essentials:
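Three-day proliferation at 37 °C/5% CO2 of FLT3-ITD MOLM-14 lines with D835Y or F691L mutation, seeded 1×10^4 per well. Compounds at eight points, top 1 μM final, 0.2% DMSO. ATP luminescence (CellTiter-Glo) gives IC50.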

What is called GI50 is the concentration that inhibits growth by half. As usually defined, the IC50 is the concentration that gives 50% inhibition.

Regarding `COCCn1cc(Nc2ncc(-c3ccc(CC(=O)Nc4cnc(OC)c(C(F)(F)F)c4)c(F)c3)cn2)cn1` [Compound P-0265, 2-[2-fluoro-4-[2-[[1-(2-methoxyethyl)pyrazol-4-yl]amino]pyrimidin-5-yl]phenyl]-N-[6-methoxy-5-(trifluoromethyl)-3-pyridyl]acetamide], the GI50 in assay [1] fell in the range of 0.0001 to 10 µM. Also, the IC50 in assay [2] lay in the range of 0.0001 to 10 µM.
`COc1ncc(NC(=O)Cc2ccc(-c3cnc4[nH]c(-c5ccc(C#N)nc5)cc4c3)c(F)c2)cc1C(F)(F)F` [Compound P-0014, 2-[4-[2-(6-cyano-3-pyridyl)-1H-pyrrolo[2,3-b]pyridin-5-yl]-3-fluoro-phenyl]-N-[6-methoxy-5-(trifluoromethyl)-3-pyridyl]acetamide]: the GI50 in assay [1] was 0.0001 to 10 µM. In assay [2], this compound came in with a half-inhibitory concentration (IC50) of 0.0001 to 10 µM.
As for `CCn1cc(Nc2ncc(-c3ccc(CC(=O)Nc4cnc(Cl)c(C(F)(F)F)c4)c(F)c3)cn2)cn1` [Compound P-0260, N-[6-chloro-5-(trifluoromethyl)-3-pyridyl]-2-[4-[2-[(1-ethylpyrazol-4-yl)amino]pyrimidin-5-yl]-2-fluoro-phenyl]acetamide], the GI50 in assay [1] is 0.0001 to 10 µM. In addition, in assay [2], the IC50 was in the range of 0.0001 to 10 µM.
On to `COc1ncc(NC(=O)Cc2ccc(-c3cnc(Nc4cnn(C)c4)nc3)c(F)c2)cc1C(F)(F)F` [Compound P-0206, 2-[3-fluoro-4-[2-[(1-methylpyrazol-4-yl)amino]pyrimidin-5-yl]phenyl]-N-[6-methoxy-5-(trifluoromethyl)-3-pyridyl]acetamide], for which, in assay [1], the GI50 lay within 0.0001 to 10 µM. Also, the IC50 in assay [2] lay in the range of 0.0001 to 10 µM.
On to `COc1ncc(NC(=O)Cc2ccc(-c3cnc(Nc4cnn(C5CC5)c4)nc3)cc2F)cc1C(F)(F)F` [Compound P-0241, 2-[4-[2-[(1-cyclopropylpyrazol-4-yl)amino]pyrimidin-5-yl]-2-fluoro-phenyl]-N-[6-methoxy-5-(trifluoromethyl)-3-pyridyl]acetamide], for which the GI50 in assay [1] was in the range of 0.0001 to 10 µM. This compound also came in with an IC50 in assay [2] of 0.0001 to 10 µM.
In the case of `O=C(Cc1ccc(-c2cnc(Nc3cnn(C4CC4)c3)nc2)cc1)Nc1cc(C(F)(F)F)ccn1` [Compound P-0237, 2-[4-[2-[(1-cyclopropylpyrazol-4-yl)amino]pyrimidin-5-yl]phenyl]-N-[4-(trifluoromethyl)-2-pyridyl]acetamide], the GI50 in assay [1] was 0.0001 to 10 µM. This compound returned an IC50 in assay [2] of 0.0001 to 10 µM.
`CCn1cc(Nc2ncc(-c3ccc(CC(=O)Nc4cnc(OC)c(C(F)(F)F)c4)cc3F)cn2)cn1` [Compound P-0246, 2-[4-[2-[(1-ethylpyrazol-4-yl)amino]pyrimidin-5-yl]-3-fluoro-phenyl]-N-[6-methoxy-5-(trifluoromethyl)-3-pyridyl]acetamide]: in assay [1], the GI50 is 0.0001 to 10 µM. Further, in assay [2], the IC50 was 0.0001 to 10 µM.
Take `COc1ncc(NC(=O)Cc2ccc(-c3cnc(Nc4cn[nH]c4C)nc3)cc2)cc1C(F)(F)F` [Compound P-0221, N-[6-methoxy-5-(trifluoromethyl)-3-pyridyl]-2-[4-[2-[(5-methyl-1H-pyrazol-4-yl)amino]pyrimidin-5-yl]phenyl]acetamide]: the GI50 in assay [1] lay in the range of 0.0001 to 10 µM. This compound showed an IC50 in assay [2] of 0.0001 to 10 µM.
On to `CCn1cc(Nc2ncc(-c3ccc(CC(=O)Nc4ccc(C(F)(F)F)cn4)c(F)c3)cn2)cn1` [Compound P-0256, 2-[4-[2-[(1-ethylpyrazol-4-yl)amino]pyrimidin-5-yl]-2-fluoro-phenyl]-N-[5-(trifluoromethyl)-2-pyridyl]acetamide], for which, in assay [1], the GI50 fell in the range of 0.0001 to 10 µM. This compound also showed an IC50 in assay [2] of 0.0001 to 10 µM.
In the case of `COc1ncc(NC(=O)Cc2ccc(-c3cnc4[nH]c(-c5cnn(C(F)F)c5)cc4c3)cc2F)cc1C(F)(F)F` [Compound P-0015, 2-[4-[2-[1-(difluoromethyl)pyrazol-4-yl]-1H-pyrrolo[2,3-b]pyridin-5-yl]-2-fluoro-phenyl]-N-[6-methoxy-5-(trifluoromethyl)-3-pyridyl]acetamide], in assay [1], the concentration for 50% growth inhibition (GI50) was 0.0001 to 10 µM. In assay [2], this compound had an IC50 of 0.0001 to 10 µM.
For `COc1ncc(NC(=O)Cc2ccc(-c3cnc4[nH]c(-c5ccnc(C#N)c5)cc4c3)cc2F)cc1C(F)(F)F` [Compound P-0013, 2-[4-[2-(2-cyano-4-pyridyl)-1H-pyrrolo[2,3-b]pyridin-5-yl]-2-fluoro-phenyl]-N-[6-methoxy-5-(trifluoromethyl)-3-pyridyl]acetamide], the GI50 in assay [1] is 0.0001 to 10 µM. The same compound returned an IC50 in assay [2] of 0.0001 to 10 µM.
Turning to `CCn1cc(Nc2ncc(-c3ccc(CC(=O)Nc4cnc(C)c(C(F)(F)F)c4)c(F)c3)cn2)cn1` [Compound P-0261, 2-[4-[2-[(1-ethylpyrazol-4-yl)amino]pyrimidin-5-yl]-2-fluoro-phenyl]-N-[6-methyl-5-(trifluoromethyl)-3-pyridyl]acetamide], the GI50 in assay [1] was in the range of 0.0001 to 10 µM. Also, the IC50 in assay [2] lay within 0.0001 to 10 µM.
Consider `CC(C)(O)C#Cc1cc2cc(-c3ccc(CC(=O)Nc4cncc(C(F)(F)F)c4)cc3)cnc2[nH]1` [Compound P-0204, 2-[4-[2-(3-hydroxy-3-methyl-but-1-ynyl)-1H-pyrrolo[2,3-b]pyridin-5-yl]phenyl]-N-[5-(trifluoromethyl)-3-pyridyl]acetamide], for which the GI50 in assay [1] was in the range of 0.0001 to 10 µM. This compound displayed an IC50 in assay [2] of 0.0001 to 10 µM.
As to `COc1n[nH]c2ncc(-c3ccc(CC(=O)Nc4cnc(C)c(C(F)(F)F)c4)cc3)cc12` [Compound P-0218, 2-[4-(3-methoxy-1H-pyrazolo[3,4-b]pyridin-5-yl)phenyl]-N-[6-methyl-5-(trifluoromethyl)-3-pyridyl]acetamide], the GI50 in assay [1] lay in the range of 0.0001 to 10 µM. The same compound gave an IC50 in assay [2] of 0.0001 to 10 µM.
For the compound `Cc1nn(C)cc1Nc1ncc(-c2ccc(CC(=O)Nc3cnc(C)c(C(F)(F)F)c3)cc2)cn1` [Compound P-0228, 2-[4-[2-[(1,3-dimethylpyrazol-4-yl)amino]pyrimidin-5-yl]phenyl]-N-[6-methyl-5-(trifluoromethyl)-3-pyridyl]acetamide], in assay [1], the GI50 fell in the range of 0.0001 to 10 µM. For the same compound, in assay [2], the IC50 was in the range of 0.0001 to 10 µM.
Regarding `COCCn1cc(Nc2ncc(-c3ccc(CC(=O)Nc4ccc(C(F)(F)F)cn4)c(F)c3)cn2)cn1` [Compound P-0269, 2-[2-fluoro-4-[2-[[1-(2-methoxyethyl)pyrazol-4-yl]amino]pyrimidin-5-yl]phenyl]-N-[5-(trifluoromethyl)-2-pyridyl]acetamide], the GI50 in assay [1] was in the range of 0.0001 to 10 µM. Also, the IC50 in assay [2] was 0.0001 to 10 µM.
As for `CCn1cc(Nc2ncc(-c3ccc(CC(=O)Nc4cc(C(F)(F)F)ccn4)cc3)cn2)cn1` [Compound P-0250, 2-[4-[2-[(1-ethylpyrazol-4-yl)amino]pyrimidin-5-yl]phenyl]-N-[4-(trifluoromethyl)-2-pyridyl]acetamide], the GI50 in assay [1] was 0.0001 to 10 µM. Also, in assay [2], the IC50 fell in the range of 0.0001 to 10 µM.
Turning to `COc1ncc(NC(=O)Cc2ccc(-c3cnc4[nH]nc(Cl)c4c3)cc2)cc1C(F)(F)F` [Compound P-0230, 2-[4-(3-chloro-1H-pyrazolo[3,4-b]pyridin-5-yl)phenyl]-N-[6-methoxy-5-(trifluoromethyl)-3-pyridyl]acetamide], the GI50 in assay [1] was in the range of 0.0001 to 10 µM. The IC50 in assay [2] is 0.0001 to 10 µM.

Source of the values: patent US10160747B2, “Compounds and methods for kinase modulation, and indications therefor” (Plexxikon Inc., priority 2016, dated 2018).
